According to patent US12559529B2, “NPY2 receptor agonists” (Boehringer Ingelheim International GmbH, priority 2019, dated 2026):

How the values were obtained:
[1] = target: T1, Human Neuropeptide Y2 Receptor (Homo sapiens, UniProt P49146); assay: Radioligand binding competition assay (RLB); settings: Table 3; human 125I-PYY (1-36) 0.02 nM, Y2 receptor membranes; read-out: Ki
T1 construct: purchased CHEMICON HTS066M
T1 sequence (P49146 1-381): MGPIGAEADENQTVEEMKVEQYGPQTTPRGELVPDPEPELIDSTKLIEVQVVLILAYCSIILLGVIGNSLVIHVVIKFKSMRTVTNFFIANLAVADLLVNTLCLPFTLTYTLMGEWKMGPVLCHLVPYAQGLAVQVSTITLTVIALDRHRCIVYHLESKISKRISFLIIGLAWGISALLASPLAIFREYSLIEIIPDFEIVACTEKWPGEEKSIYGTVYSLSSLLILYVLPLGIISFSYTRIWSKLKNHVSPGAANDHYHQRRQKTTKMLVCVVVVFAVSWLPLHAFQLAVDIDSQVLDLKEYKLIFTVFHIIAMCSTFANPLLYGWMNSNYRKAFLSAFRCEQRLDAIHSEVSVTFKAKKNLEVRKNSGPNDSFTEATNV
How it was run: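 Competition binding on human Y2 receptor membranes, 0.5 μg protein/well, in 50 mM HEPES, 5 mM MgCl2, 1 mM CaCl2, pH 7.4, 0.2% ovalbumin; peptides diluted from 1 mM DMSO stocks.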

[2] = test system: normal NMRI mice; assay: Effect on acute food intake in normal NMRI mice; type: in vivo; settings: male NMRI mice, 10 nmol/kg subcutaneously once
Method: Male NMRI mice were obtained from Charles River (Charles River, Research Models & Services Germany GmbH) or from Jan Vier (Jan Vier Labs, France) at 5 weeks of age. […] Room temperature was controlled to 21° C.±1° C., with 60%+20% humidity.
Animals were transferred 5-7 days before the start of the study to a real-time food intake monitoring system, HM-2 system (MBRose, Denmark), to allow acclimatization to experimental conditions. As the animals were uniquely identified with microchips, each individual animal was identified by its microchip upon entry and exit from the food channel. Randomization of the mice for each study group (n=7-8) was based on body weight measured the day before the start of the study. A vehicle-treated (50 mM phosphate buffer pH7 with 5% Mannitol) group was included in each experiment. Six hours before the start of the night phase animals were fasted. One hour before the dark phase animals were dosed once subcutaneously (10 nmol/kg) with test peptide. […] The food intake of the treated groups was normalized (in %) to the average food intake of the group receiving vehicle (Table 7). Statistical significance was evaluated using One-way analysis of variance with Turkey's multiple comparison test. P<0.05 was considered statistically significant.

SMILES | Ki [1] | Acute Food Intake 24 h [% vehicle] [2]
CC(C)CC(=O)N[C@@H](C)C(=O)N1CCC[C@H]1C(=O)N[C@@H](CCC(=O)O)C(=O)N[C@@H](CCCCNC(=O)COCCOCCNC(=O)COCCOCCNC(=O)CC[C@H](NC(=O)CCCCCCCCCCCCCCCCC(=O)O)C(=O)O)C(=O)N1CCC[C@H]1C(=O)N[C@@H](CCC(=O)O)C(=O)N[C@@H](CCC(=O)O)C(=O)N[C@@H](CC(=O)O)C(=O)N[C@@H](C)C(=O)N[C@@H](CO)C(=O)N1CCC[C@H]1C(=O)N[C@@H](CCC(=O)O)C(=O)N[C@@H](CCC(=O)O)C(=O)N[C@@H](CC(C)C)C(=O)N[C@@H](CCC(N)=O)C(=O)N[C@@H](CCCCN)C(=O)N[C@@H](Cc1ccc(O)cc1)C(=O)N[C@@H](Cc1ccc(O)cc1)C(=O)N[C@H](C(=O)N[C@@H](CO)C(=O)N[C@@H](CC(C)C)C(=O)N[C@@H](CCCNC(=N)N)C(=O)N[C@@H](Cc1c[nH]cn1)C(=O)N[C@@H](Cc1ccc(O)cc1)C(=O)N[C@@H](Cc1ccc(O)cc1)C(=O)N[C@@H](CC(N)=O)C(=O)N[C@@H](Cc1c[nH]c2ccccc12)C(=O)N[C@@H](CC(C)C)C(=O)N[C@H](C(=O)N[C@@H](CCCNC(=N)N)C(=O)N[C@@H](CCC(N)=O)C(=O)N[C@@H](CCCNC(=N)N)C(=O)N[C@@H](Cc1ccc(O)cc1)C(N)=O)[C@@H](C)O)C(C)C [Compound 21, N{alpha-4}-(3-methylbutanoyl)-N{epsilon-7}-[2-(2-{2-[2-(2-{2-[(4S)-4-carboxy-4-(17-carboxyheptadecanamido)butanamido]ethoxy}ethoxy)acetamido]ethoxy}ethoxy)acetamido]-[4A,7K,9E,18Q,19K,22V,28Y,30W,31L]hPYY (4-36)] | 1.52 nM | 89 % vehicle
CC(C)CC(=O)N[C@@H](C)C(=O)N1CCC[C@H]1C(=O)N[C@@H](CCC(=O)O)C(=O)N[C@@H](CCCCNC(=O)COCCOCCNC(=O)COCCOCCNC(=O)CC[C@H](NC(=O)CCCCCCCCCCCCCCCCC(=O)O)C(=O)O)C(=O)N1CCC[C@H]1C(=O)N[C@@H](CCC(=O)O)C(=O)N[C@@H](CCC(=O)O)C(=O)N1CCC[C@H]1C(=O)N[C@@H](C)C(=O)N[C@@H](CO)C(=O)N1CCC[C@H]1C(=O)N[C@@H](CCC(=O)O)C(=O)N[C@@H](CCC(=O)O)C(=O)N[C@@H](CC(C)C)C(=O)N[C@@H](CCC(N)=O)C(=O)N[C@@H](CCCNC(=N)N)C(=O)N[C@@H](Cc1ccc(O)cc1)C(=O)N[C@@H](Cc1ccc(O)cc1)C(=O)N[C@H](C(=O)N[C@@H](CCC(=O)O)C(=O)N[C@@H](CC(C)C)C(=O)N[C@@H](CCCNC(=N)N)C(=O)N[C@@H](Cc1c[nH]cn1)C(=O)N[C@@H](Cc1ccc(O)cc1)C(=O)N[C@@H](Cc1ccc(O)cc1)C(=O)N[C@@H](CC(N)=O)C(=O)N[C@@H](Cc1c[nH]c2ccccc12)C(=O)N[C@@H](CC(C)C)C(=O)N[C@H](C(=O)N[C@@H](CCCNC(=N)N)C(=O)N[C@@H](CCC(N)=O)C(=O)N[C@@H](CCCNC(=N)N)C(=O)N[C@@H](Cc1ccc(O)cc1)C(N)=O)[C@@H](C)O)C(C)C [Compound 33, N{alpha-4}-(3-methylbutanoyl)-N{epsilon-7}-[2-(2-{2-[2-(2-{2-[(4S)-4-carboxy-4-(17-carboxyheptadecanamido)butanamido]ethoxy}ethoxy)acetamido]ethoxy}ethoxy)acetamido]-[4A,7K,9E,11P,18Q,22V,23E,28Y,30W,31L]hPYY (4-36)] | 0.45 nM | 54 % vehicle
